In patent US12662483B2, “Cocrystalline forms of FGFR3 inhibitors” (Eli Lilly and Company, priority 2022, dated 2026):
Values after ≈ are worked out from the molar mass of the structure shown.

How the values were obtained:
FGFR3 protein = molecular target: T1, FGFR3 protein (Homo sapiens, UniProt P22607); experiment: FGFR3 enzyme assay (KinEASE-TK HTRF); format: biochemical; settings: at Km ATP, 0.25 nM enzyme
T1 construct: purchased Reaction Biology 1068
Experimental: Enzyme activity was monitored using the KinEASE™-TK Assay Kit (CisBio, Cat. No. 62TK0PEC) according to the manufacturer's instructions. All assays were performed at the respective KmATP for each kinase in KinEASE™ Kinase Buffer.
Titration of Isomers 1, 2, and A were performed in a half-log manner in 100% dimethyl sulfoxide (DMSO) starting at 1 uM. Prior to the initiation of the reaction by adenosine triphosphate (ATP), FGFR1 protein and Isomers 1, 2, and A were pre-incubated for 15 minutes at room temperature, and FGFR3 protein and Isomers 1, 2, and A were pre-incubated on ice for 15 minutes. Reactions proceeded for 30 min at 30° C. Plates were quenched by the addition of the Anti-TK cryptate antibody/Streptavidin-XL665 mixture.
Ratios were converted to a percent of control (POC) using a ratiometric emission factor. One hundred POC was determined using no test compound, and 0 POC was determined in the presence of 1 uM of an appropriate control inhibitor. A 4-parameter logistic curve was fit to the POC values as a function of the concentration of Isomers 1, 2, and A, and the IC50 value was the point where the best fit curve crossed 50 POC.

[1] = Solubility in aqueous and biorelevant media (HPLC of supernatant); settings: for solubility at 24 h: thermodynamic from solid
Description: Samples of Isomer 2 IPMC SDD, Isomer 2 HPMC-AS-M SDD, Isomer 2 PVP-VA SDD, and the cocrystalline form of Formula I or Formula II were centrifuged.

[2] = Dynamic vapor sorption (DVS); format: physicochemical; settings: 25° C.
Experimental: Dynamic vapor sorption (DVS) analysis is obtained at 25° C. using a TA Instruments Q5000SA VTI flow moisture balance running TA Thermal Advantage, v5.2.6 and Universal Analysis 2000, v4.5a Software. The equilibrium criterion was <0.01% weight change in 5 minutes for a maximum of 60 minutes. Humidity verification calibration was performed with sodium bromide. The weight calibration was performed with manufacturer-supplied standards.
A prepared sample of the cocrystalline form of Formula I is characterized by dynamic vapor sorption as having a range of water content from about 1% at 0% RH to about 3.2% at 90% RH.

[3] = Solid state stability at 40° C./75% RH, caps off; format: physicochemical; settings: 40° C. and 75% relative humidity
[4] = fasted simulated intestinal fluid

T1 sequence (P22607 23-806): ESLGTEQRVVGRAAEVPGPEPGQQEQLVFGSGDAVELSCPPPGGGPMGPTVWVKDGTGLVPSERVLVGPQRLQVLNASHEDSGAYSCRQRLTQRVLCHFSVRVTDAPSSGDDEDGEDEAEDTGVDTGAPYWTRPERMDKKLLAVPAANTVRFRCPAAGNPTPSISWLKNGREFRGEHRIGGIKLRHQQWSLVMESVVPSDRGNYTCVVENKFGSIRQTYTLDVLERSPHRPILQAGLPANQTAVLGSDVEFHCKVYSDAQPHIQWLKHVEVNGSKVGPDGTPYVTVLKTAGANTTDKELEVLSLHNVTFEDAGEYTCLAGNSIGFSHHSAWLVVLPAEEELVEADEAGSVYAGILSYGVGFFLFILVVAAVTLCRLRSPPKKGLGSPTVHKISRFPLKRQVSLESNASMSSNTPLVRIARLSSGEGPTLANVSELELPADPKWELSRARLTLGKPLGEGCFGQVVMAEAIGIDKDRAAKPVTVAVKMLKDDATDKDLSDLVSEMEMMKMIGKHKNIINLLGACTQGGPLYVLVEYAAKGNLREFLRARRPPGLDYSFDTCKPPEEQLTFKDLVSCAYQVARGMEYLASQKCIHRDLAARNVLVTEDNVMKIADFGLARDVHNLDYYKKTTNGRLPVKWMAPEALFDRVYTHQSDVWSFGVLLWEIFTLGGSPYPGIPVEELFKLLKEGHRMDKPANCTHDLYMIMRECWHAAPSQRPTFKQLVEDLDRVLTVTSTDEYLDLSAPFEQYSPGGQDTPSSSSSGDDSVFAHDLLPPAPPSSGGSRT

With `Cc1c(-c2cc(O[C@H](CO)c3ccccn3)c3c(Cl)cnn3c2)nnn1C1CCN(C#N)CC1` [Isomer A, 4-[4-[3-chloro-4-[2-hydroxy-1-(2-pyridyl)ethoxy]pyrazolo[1,5-a]pyridin-6-yl]-5-methyl-triazol-1-yl]piperidine-1-carbonitrile, Isomer 1] the IC50 (FGFR3 protein) was less than 50 nM.
In the case of `Cc1c(-c2cc(O[C@H](CO)c3ccc(F)cn3)c3c(Cl)cnn3c2)nnn1C1CCN(C#N)CC1` [Isomer 2, 4-[4-[3-chloro-4-[1-(5-fluoro-2-pyridyl)-2-hydroxy-ethoxy]pyrazolo[1,5-a]pyridin-6-yl]-5-methyl-triazol-1-yl]piperidine-1-carbonitrile, Isomer 2], the solubility at 24 h ([1]; 0.01N aqueous HCl, simulated gastric fluid) is reported as 7 µg/mL (≈ 14.1 µM), the solubility at 24 h ([1]; 0.1N aqueous HCl, simulated gastric fluid) is reported as 12 µg/mL (≈ 24.1 µM) and the solubility at 24 h ([1]; acetate buffer USP, pH 4.5, aqueous buffer) is reported as 6 µg/mL (≈ 12.1 µM). For the same molecule, the solubility at 24 h ([1]; phosphate buffer USP, pH 6, aqueous buffer) was 6 µg/mL (≈ 12.1 µM), the solubility at 24 h ([1]; phosphate buffer USP, pH 7.5, aqueous buffer) was 5 µg/mL (≈ 10.1 µM) and the solubility at 24 h ([1]; simulated gastric fluid) was 47 µg/mL (≈ 94.6 µM). For the same molecule, the solubility at 24 h ([1]; simulated intestinal fluid (fasted), fassif) was 10 µg/mL (≈ 20.1 µM), the solubility at 24 h ([1]; simulated intestinal fluid (fed), fessif) was 38 µg/mL (≈ 76.5 µM) and the solubility at 24 h ([1]; water) was 6 µg/mL (≈ 12.1 µM).
For `Cc1c(-c2cc(O[C@H](CO)c3ccc(F)cn3)c3c(Cl)cnn3c2)nnn1C1CCN(C#N)CC1` (single isomer, unassigned; isomer 2) [cocrystalline form of Formula I, 4-[4-[3-Chloro-4-[1-(5-fluoro-2-pyridyl)-2-hydroxy-ethoxy]pyrazolo[1,5-a]pyridin-6-yl]-5-methyl-triazol-1-yl]piperidine-1-carbonitrile, Isomer 2, Hemi-Gallic Acid Cocrystalline Form, Hemihydrate], the “solubility relative to Isomer 2 with IPMC SDD” value [1, 4] was “about two to about three times more soluble”, the “solubility relative to freebase form of Isomer 2” value [1, 4] was “about four to about five times more soluble” and the “water content by dynamic vapor sorption” value ([2]; 0% RH) was “about 1%”. The “water content by dynamic vapor sorption” value ([2]; 90% RH) was “about 3.2%” and the “stability relative to SDD formulations of Isomer 2 (IPMC, HPMC-AS-M, PVP-VA)” value [3] was “more stable”.
